Reference: the supplement of paper PMC10307832

What was measured:
Experiment in all cases: relative viability (nuclei count vs DMSO), 5 days (fraction); higher = more cells survive
[1] = compound: N#CC[C@H](C1CCCC1)n1cc(-c2ncnc3[nH]ccc23)cn1 [Ruxolitinib] + C[C@]1(O)C[C@@H](c2nc(-c3ccc4ccc(-c5ccccc5)nc4c3)c3c(N)nccn32)C1 [Linsitinib] (partner 1 µM)
In short: (§1)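 After 5 days of treatment, lung cancer cells in 1536-well plates were fixed and stained in a single step (final 0.05% Triton X-100, 1% formaldehyde, 1 ug/ml Hoechst) and their nuclei counted on 4× images. Treatment had been applied by pin tool the day after seeding as one drug alone or as a fixed anchor-drug dose with five library-drug doses (not always all listed) in √10 steps. Relative viability is the nuclei count of treated wells divided by that of vehicle wells, and values are medians of duplicate plates.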

[2] = compound: N#CC[C@H](C1CCCC1)n1cc(-c2ncnc3[nH]ccc23)cn1 [Ruxolitinib] + Cc1cc(Nc2cc(N3CCN(C)CC3)nc(Sc3ccc(NC(=O)C4CC4)cc3)n2)n[nH]1 [Tozasertib] (partner 0.1 µM)
In short: as §1

[3] = compound: CS(=O)(=O)c1ccc(C(=O)Nc2ccc(Cl)c(-c3ccccn3)c2)c(Cl)c1 [Vismodegib] + CS(=O)(=O)CCNCc1ccc(-c2ccc3ncnc(Nc4ccc(OCc5cccc(F)c5)c(Cl)c4)c3c2)o1 [Lapatinib] (partner 2 µM)
In short: as §1

[4] = compound: CS(=O)(=O)c1ccc(-c2cnc(N)c(C(=O)Nc3ccccc3)n2)cc1 [VE-821] + C[C@@H](Oc1cc(-c2cnn(C3CCNCC3)c2)cnc1N)c1c(Cl)ccc(F)c1Cl [Crizotinib] (partner 1 µM)
In short: as §1

Row | Cell Line | relative viability ([1]; first compound 0.08 µM) | relative viability ([1]; first compound 0.253 µM) | relative viability ([1]; first compound 0.8 µM) | relative viability ([1]; first compound 2.53 µM) | relative viability ([1]; first compound 8 µM) | relative viability ([2]; first compound 0.08 µM) | relative viability ([2]; first compound 0.253 µM) | relative viability ([2]; first compound 0.8 µM) | relative viability ([2]; first compound 2.53 µM) | relative viability ([2]; first compound 8 µM) | relative viability ([3]; first compound 0.08 µM) | relative viability ([3]; first compound 0.253 µM) | relative viability ([3]; first compound 0.8 µM) | relative viability ([3]; first compound 2.53 µM) | relative viability ([3]; first compound 8 µM) | relative viability ([4]; first compound 0.08 µM) | relative viability ([4]; first compound 0.253 µM) | relative viability ([4]; first compound 0.8 µM) | relative viability ([4]; first compound 2.53 µM) | relative viability ([4]; first compound 8 µM)
1 | HCC-78 | 0.419 | 0.296 | 0.437 | 0.372 | 0.414 | 0.512 | 0.45 | 0.414 | 0.55 | 0.5 | 0.278 | 0.646 | 0.667 | 0.701 | 0.746 | 0.344 | 0.368 | 0.338 | 0.352 | 0.336
2 | HCC-366 | 0.595 | 0.401 | 0.647 | 0.535 | 0.541 | 0.117 | 0.113 | 0.192 | 0.0897 | 0.101 | 1.08 | 1.01 | 1.1 | 1.01 | 1 | 0.792 | 0.428 | 0.403 | 0.337 | 0.045
3 | HCC-827 |  | 1.03 | 0.913 | 0.972 | 0.803 |  | 0.342 | 0.35 | 0.397 | 0.386 | 0.162 | 0.163 | 0.185 | 0.192 | 0.214 | 0.989 | 1.01 | 0.94 | 1.02 | 0.898
4 | HOP-62 |  | 0.995 | 1.05 | 0.991 | 0.867 | 0.345 | 0.394 | 0.415 | 0.402 | 0.348 | 0.981 | 0.891 | 0.934 | 1.04 | 0.926 | 0.955 | 0.885 | 0.754 | 1.03 | 0.902
5 | LC-2-ad | 0.741 | 0.86 | 0.814 | 0.68 | 0.496 |  | 0.435 | 0.548 | 0.482 | 0.515 | 0.917 | 0.963 | 0.993 | 0.943 | 0.954 | 0.516 | 0.424 | 0.526 | 0.518 | 0.499
6 | LCLC-97TM1 | 0.195 | 0.151 | 0.189 | 0.22 | 0.219 | 0.178 | 0.316 | 0.229 | 0.305 | 0.348 |  |  | 0.663 |  | 1.03 | 0.537 | 0.381 | 0.413 | 0.632 | 0.174
7 | LK-2 | 0.459 | 0.715 | 0.722 | 0.36 | 0.765 | 0.162 | 0.199 | 0.168 | 0.166 | 0.171 | 0.916 | 0.941 | 0.893 | 0.896 | 0.72 | 0.223 | 0.228 | 0.248 | 0.249 | 0.212
8 | LOU-NH91 | 0.663 | 0.895 | 1.14 | 0.895 | 0.872 |  | 0.627 | 0.744 | 0.65 | 0.632 | 0.757 | 0.798 | 0.663 | 0.745 | 0.841 | 0.74 | 0.772 | 0.757 | 0.754 | 0.752
9 | LU99A | 0.549 | 0.499 | 0.541 | 0.554 | 0.499 | 0.296 | 0.26 | 0.298 | 0.303 | 0.316 | 0.928 | 1.04 | 1.04 | 1.04 | 0.979 | 0.628 | 0.564 | 0.532 | 0.476 | 0.325
10 | LXF-289 | 0.919 | 0.972 | 0.858 | 0.892 | 0.813 | 0.215 | 0.165 | 0.233 | 0.134 | 0.187 | 0.912 | 0.894 | 0.916 | 0.962 | 0.875 | 0.919 | 0.812 | 0.9 | 0.933 | 0.912
11 | NCI-H23 | 0.579 | 0.694 | 0.799 | 0.485 | 0.612 | 0.434 | 0.418 | 0.437 | 0.401 | 0.301 | 1.1 | 1.08 | 1.09 | 1.11 | 1.09 | 0.788 | 0.495 | 0.501 | 0.508 | 0.272
12 | NCI-H322M | 1.05 | 0.9 | 0.997 | 0.91 | 1.17 | 0.451 | 0.503 | 0.457 | 0.458 | 0.482 | 0.631 | 0.646 | 0.519 | 0.565 | 0.572 | 1.03 |  | 0.858 | 0.881 | 0.502
13 | NCI-H358 | 0.716 | 0.629 | 0.803 | 0.514 | 0.544 | 0.102 | 0.0986 | 0.102 | 0.102 | 0.0752 | 0.471 | 0.505 | 0.422 | 0.518 | 0.461 | 0.67 | 0.636 | 0.501 | 0.588 | 0.451
14 | NCI-H460 | 0.801 | 0.858 | 0.929 | 0.702 | 0.462 |  | 0.601 | 0.606 | 0.578 | 0.744 | 0.903 | 0.887 | 1.2 | 0.823 | 1.03 | 1.5 | 0.818 | 0.588 | 0.359 | 0.186
15 | NCI-H520 |  | 1.08 | 1.16 | 0.847 | 0.679 | 0.553 | 0.467 | 0.537 | 0.439 | 0.477 | 0.856 | 0.921 | 0.977 | 0.844 | 1.01 | 0.967 | 0.826 |  | 0.867 | 0.503
16 | NCI-H596 | 1.24 | 1.18 | 1.09 | 1.11 | 1.11 | 0.827 | 0.897 | 0.962 | 0.955 | 0.799 | 0.983 | 1.07 | 0.941 | 1.1 | 1.09 | 0.977 | 1.03 | 0.904 | 1.12 | 0.934
17 | NCI-H647 | 1.29 | 1.15 | 1.22 | 1.16 | 1.03 | 0.297 | 0.237 | 0.224 | 0.378 | 0.297 | 0.99 | 0.998 | 1.17 | 1.01 | 1.12 | 1.11 | 1.05 | 1.02 | 0.935 | 0.42
